# Reference: patent US6770597B2, “Benzohydrazide derivatives as herbicides and desiccant compositions containing them” (Ishihara Sangyo Kaisha, Ltd., priority 2002, dated 2004)
# Legend:
# Assay type in all cases: in vivo
# [1] = system: ivyleaf morningglory (Ipomoea hederacea, IPOHE); assay: Greenhouse herbicide screen, post-emerge application, phytotoxicity rating; settings: POST emergent, 14 days after application, scale 0-100
# In short: (§1)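 Scoring at 14 days used a 0–100 scale, 100 being all plants dead, for weed control and crop injury alike. Rates ranged from 15 to 1000 g ai/ha, applied in acetone at 187 l/ha by track sprayer. Post-emerge treatment hit 2–3 leaf plants; pre-emerge treatment hit soil seeded one day earlier.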
# [2] = system: large crabgrass (Digitaria sanguinalis, DIGSA); assay: as above; settings: POST emergent, 14 days after application, scale 0-100
# In short: as §1
# [3] = system: sicklepod (Cassia obtusifolia, CASOB); assay: as above; settings: POST emergent, 14 days after application, scale 0-100
# In short: as §1
# [4] = system: johnsongrass (Sorghum halepense, SORHA); assay: as above; settings: POST emergent, 14 days after application, scale 0-100
# In short: as §1
# [5] = system: lambsquarters (Chenopodium album, CHEAL); assay: as above; settings: POST emergent, 14 days after application, scale 0-100
# In short: as §1
# [6] = system: common ragweed (Ambrosia artemisiifolia L., AMBEL); assay: as above; settings: POST emergent, 14 days after application, scale 0-100
# In short: as §1
# [7] = system: velvetleaf (Abutilon theophrasti, ABUTH); assay: as above; settings: POST emergent, 14 days after application, scale 0-100
# In short: as §1
# [8] = system: cocklebur (Xanthium strumarium, XANST); assay: as above; settings: POST emergent, 14 days after application, scale 0-100
# In short: as §1
# [9] = system: green foxtail (Setaria viridis, SETVI); assay: as above; settings: POST emergent, 14 days after application, scale 0-100
# In short: as §1
# [10] = system: redroot pigweed (Amaranthus retrofiexus, AMARE); assay: as above; settings: POST emergent, 14 days after application
# In short: as §1
# [11] = system: barnyardgrass (Echinochloa crus-galli, ECHCG); assay: as above; settings: POST emergent, 14 days after application, scale 0-100
# In short: as §1
# [12] = system: ivyleaf morningglory (Ipomoea hederacea, IPOHE); assay: Greenhouse herbicide screen, pre-emerge application, phytotoxicity rating; settings: PRE emergent, 14 days after application, rating scale 0-100
# In short: as §1
# [13] = system: large crabgrass (Digitaria sanguinalis, DIGSA); assay: as above; settings: PRE emergent, 14 days after application, rating scale 0-100
# In short: as §1
# [14] = system: sicklepod (Cassia obtusifolia, CASOB); assay: as above; settings: PRE emergent, 14 days after application, rating scale 0-100
# In short: as §1
# [15] = system: johnsongrass (Sorghum halepense, SORHA); assay: as above; settings: PRE emergent, 14 days after application, rating scale 0-100
# In short: as §1
# [16] = system: lambsquarters (Chenopodium album, CHEAL); assay: as above; settings: PRE emergent, 14 days after application, rating scale 0-100
# In short: as §1
# [17] = system: common ragweed (Ambrosia artemisiifolia L., AMBEL); assay: as above; settings: PRE emergent, 14 days after application, rating scale 0-100
# In short: as §1
# [18] = system: velvetleaf (Abutilon theophrasti, ABUTH); assay: as above; settings: PRE emergent, 14 days after application, rating scale 0-100
# In short: as §1
# [19] = system: cocklebur (Xanthium strumarium, XANST); assay: as above; settings: PRE emergent, 14 days after application, rating scale 0-100
# In short: as §1
# [20] = system: green foxtail (Setaria viridis, SETVI); assay: as above; settings: PRE emergent, 14 days after application, rating scale 0-100
# In short: as §1
# [21] = system: redroot pigweed (Amaranthus retrofiexus, AMARE); assay: as above; settings: PRE emergent, 14 days after application, rating scale 0-100
# In short: as §1
# [22] = system: barnyardgrass (Echinochloa crus-galli, ECHCG); assay: as above; settings: PRE emergent, 14 days after application, rating scale 0-100
# In short: as §1
# [23] = system: field corn (Zea mays L., var. Dekalb 535, CORN); assay: Greenhouse herbicide screen, pre-emerge application, crop damage rating; settings: PRE emergent, 14 days after application, rating scale 0-100
# From the text: (§2) A standard greenhouse herbicide activity screening system was used to evaluate the herbicidal efficacy and crop safety of these test compounds. Seven broadleaf weed species including redroot pigweed (Amaranthus retrofiexus, AMARE), velvetleaf (Abutilon theophrasti, ABUTH), sicklepod (Cassia obtusifolia, CASOB), ivyleaf morningglory (Ipomoea hederacea, IPOHE), lambsquarters (Chenopodium album, CHEAL), common ragweed (Ambrosia artemisiifolia L., AMBEL), and cocklebur (Xanthium strumarium, XANST) were used as test species. Four grass weed species including green foxtail (Setaria viridis, SETVI), barnyardgrass (Echinochloa crus-galli, ECHCG), johnsongrass (Sorghum halepense, SORHA), and large crabgrass (Digitaria sanguinalis, DIGSA) were also used. In addition, four crop species, field corn (Zea mays L., var. Dekalb 535, CORN), soybean (Glycine max L., var. Pella 86, SOY), upland rice (Oryza sp., var.Cocodrie, RICE) and wheat (Triticum aestivum L.) were included.
# (§3) All plants were grown in 10 cm square plastic pots which were filled with a sandy loam soil mix. For pre-emerge tests, seeds were planted one day prior to application of the test compounds. For post-emerge tests, seeds were planted 8-21 days prior to the test to allow emergence and good foliage development prior to application of the test substances. At the time of the post-emerge application, plants of all species were usually at the 2-3 leaf stage of development.
# (§4) All test compounds were dissolved in acetone and applied to the test units in a volume of 187 l/ha. Test materials were applied at rates ranging from 15 g ai/ha to 1000 g ai/ha using a track sprayer equipped with a TJ8001E even flow flat fan spray nozzle. Plants were arranged on a shelf so that the top of the canopy (post-emerge) or top of the soil surface (pre-emerge) was 40-45 cm below the nozzle. Pressurized air was used to force the test solution through the nozzle as it was mechanically advanced (via electrically driven chain drive) over the top of all test plants/pots. This application simulates a typical commercial field herbicide application.
# (§5) Pre-emergence tests were top watered immediately after treatment to incorporate the test materials, then routinely top-watered for normal growth. Post-emerge test units were always bottom-watered.
# (§6) At 14 days after application of the test materials, phytotoxicity ratings were recorded. A rating scale of 0-100 was used as previously described in Research Methods in Weed Science, 2nd edition, B. Truelove, Ed., Southern Weed Science Society, Auburn University, Auburn, Ala., 1977. Briefly, “0” corresponds to no damage and “100” corresponds to complete death of all plants in the test unit. This scale was used both to determine efficacy against weed species and damage to crop species. Herbicide activity data for various compounds of this invention, which are shown by compound No. in Tables 1-12, are shown in Tables 13 and 14.
# [24] = system: upland rice (Oryza sp., var.Cocodrie, RICE); assay: as above; settings: PRE emergent, 14 days after application, rating scale 0-100
# From the text: as §2, §3, §4, §5, §6
# [25] = system: field corn (Zea mays L., var. Dekalb 535, CORN); assay: Greenhouse herbicide screen, post-emerge application, crop damage rating; settings: POST emergent, 14 days after application, scale 0-100
# From the text: as §2, §3, §4, §5, §6
# [26] = system: upland rice (Oryza sp., var.Cocodrie, RICE); assay: as above; settings: POST emergent, 14 days after application, scale 0-100
# From the text: as §2, §3, §4, §5, §6
structure (smiles),measurement,setting,value
CC(=O)OC(=NN1C(C)CCCC1C)c1cc(-n2c(=O)cc(C(F)(F)F)n(C)c2=O)c(F)cc1Cl (stereo not shown) [Compound 4-9],phytotoxicity rating IPOHE,[1]; 63 g ai/ha,95
same,phytotoxicity rating IPOHE,[1]; 250 g ai/ha,100
same,phytotoxicity rating DIGSA,[2]; 63 g ai/ha,50
same,phytotoxicity rating DIGSA,[2]; 250 g ai/ha,99
same,phytotoxicity rating CASOB,[3]; 63 g ai/ha,60
same,phytotoxicity rating CASOB,[3]; 250 g ai/ha,90
same,phytotoxicity rating SORHA,[4]; 63 g ai/ha,0
same,phytotoxicity rating SORHA,[4]; 250 g ai/ha,80
same,phytotoxicity rating CHEAL,[5]; 63 g ai/ha,100
same,phytotoxicity rating CHEAL,[5]; 250 g ai/ha,100
same,phytotoxicity rating AMBEL,[6]; 63 g ai/ha,60
same,phytotoxicity rating AMBEL,[6]; 250 g ai/ha,99
same,phytotoxicity rating ABUTH,[7]; 63 g ai/ha,100
same,phytotoxicity rating ABUTH,[7]; 250 g ai/ha,100
same,phytotoxicity rating XANST,[8]; 63 g ai/ha,30
same,phytotoxicity rating XANST,[8]; 250 g ai/ha,60
same,phytotoxicity rating SETVI,[9]; 63 g ai/ha,65
same,phytotoxicity rating SETVI,[9]; 250 g ai/ha,100
same,phytotoxicity rating AMARE,"[10]; 63 g ai/ha, scale 0-100 (0 no damage, 100 complete death)",100
same,phytotoxicity rating AMARE,"[10]; 250 g ai/ha, scale 0-100",100
same,phytotoxicity rating ECHCO,[11]; 63 g ai/ha,0
same,phytotoxicity rating ECHCO,[11]; 250 g ai/ha,15
same,phytotoxicity rating IPOHE,[12]; 63 g ai/ha,100
same,phytotoxicity rating IPOHE,[12]; 250 g ai/ha,100
same,phytotoxicity rating DIGSA,[13]; 63 g ai/ha,99
same,phytotoxicity rating DIGSA,[13]; 250 g ai/ha,100
same,phytotoxicity rating CASOB,[14]; 63 g ai/ha,80
same,phytotoxicity rating CASOB,[14]; 250 g ai/ha,100
same,phytotoxicity rating SORHA,[15]; 63 g ai/ha,65
same,phytotoxicity rating SORHA,[15]; 250 g ai/ha,100
same,phytotoxicity rating CHEAL,[16]; 63 g ai/ha,100
same,phytotoxicity rating CHEAL,[16]; 250 g ai/ha,100
same,phytotoxicity rating AMBEL,[17]; 63 g ai/ha,90
same,phytotoxicity rating AMBEL,[17]; 250 g ai/ha,100
same,phytotoxicity rating ABUTH,[18]; 63 g ai/ha,100
same,phytotoxicity rating ABUTH,[18]; 250 g ai/ha,100
same,phytotoxicity rating XANST,[19]; 63 g ai/ha,35
same,phytotoxicity rating XANST,[19]; 250 g ai/ha,100
same,phytotoxicity rating SETVI,[20]; 63 g ai/ha,100
same,phytotoxicity rating SETVI,[20]; 250 g ai/ha,100
same,phytotoxicity rating AMARE,[21]; 63 g ai/ha,100
same,phytotoxicity rating AMARE,[21]; 250 g ai/ha,100
same,phytotoxicity rating ECHCG,[22]; 63 g ai/ha,55
same,phytotoxicity rating ECHCG,[22]; 250 g ai/ha,99
same,crop damage rating CORN,[23]; 63 g ai/ha,30
same,crop damage rating CORN,[23]; 250 g ai/ha,95
same,crop damage rating RICE,[24]; 63 g ai/ha,10
same,crop damage rating RICE,[24]; 250 g ai/ha,15
same,crop damage rating CORN,[25]; 63 g ai/ha,0
same,crop damage rating CORN,[25]; 250 g ai/ha,50
same,crop damage rating RICE,[26]; 63 g ai/ha,0
same,crop damage rating RICE,[26]; 250 g ai/ha,0
